The nature of the assay: Inhibitory activity against Phenylalanine Ammonia-lyase (PAL).

As usually defined, the Ki is a dissociation constant, usually derived from enzyme kinetics or from competition with a known ligand. On to `COc1cc(C2(C(F)(F)F)N=N2)ccc1/C=C/C(=O)O`, for which the Ki was determined as 240 µM. On to `O=C(O)/C=C/c1ccc(C2(C(F)(F)F)N=N2)cc1OCCOCCOCCNC(=O)CCCC[C@@H]1SCC2NC(=O)NC21` (some centres not stated), for which the Ki is 520 µM. This Ki is about 2.2-fold higher than that of the compound before.

The values above are taken from ChEMBL document CHEMBL1133145, “Novel photoreactive cinnamic acid analogues to elucidate phenylalanine ammonia-lyase” (Bioorg Med Chem Lett, 2000).
